The series is described as follows: GHS categories as the set defines them, by LD50: 1 up to 5, 2 up to 50, 3 up to 300, 4 up to 2000, 5 above 2000 mg/kg. Conditions: rat; in vivo; po.

`CCCCCCCC/C=C\CCCCCCCC(=O)OC[C@@H](OC(=O)CCCCCCC/C=C\CCCCCCCC)[C@H]1OC[C@H](O)[C@H]1O`: the GHS category is reported as 5.
In turn, `C[C@@H]1O[C@@H](O[C@@H]2[C@@H](O)[C@H](OCCc3ccc(O)c(O)c3)O[C@H](CO)[C@H]2OC(=O)C=Cc2ccc(O)c(O)c2)[C@H](O)[C@H](O)[C@H]1O` gave a GHS category of 5.
As to `Cc1cc(NC(=O)NC(=O)c2c(F)cccc2F)nc(C)c1-c1ccc(Cl)cc1`, the GHS category turned out to be 5.
Next, `CNC(=O)c1sc(-c2ccc(OC)c(OC)c2)nc1C`: 5; `CC(C)[C@H](N)C(=O)O`: 5.
With `CCCCCCCCCCCCN1CCCCCC1=O`, the GHS category is reported as 5.
Next, `C[C@@H]1[C@@H](c2ccc(Cl)cc2)SC(=O)N1C(=O)NC1CCCCC1` (single isomer, unassigned): 5; `O=C(Cn1cnnn1)N[C@@H]1C(=O)N2C(C(=O)O)=C(CSc3nncs3)CS[C@H]12`: 5; `CC(=O)OC1CC(C)CCC1C(C)C` (centres undefined): 5.
The result for `c1ccc(-c2cc3ccccc3[nH]2)cc1` reads 5; that for `Cn1nnnc1SCCCC(=O)NCc1ccco1`, 4; that for `c1ccc2c(c1)CCc1ccccc1N2`, 5.
`COc1ccc(CCC(C)=O)cc1` registered a GHS category of 5.
Consider `COC(=O)c1ccccc1S(=O)(=O)NC(=O)Nc1nc(C)nc(OC)n1`, for which the GHS category amounted to 5.
Turning to `CC[N+](CC)(CC)C(C)OS(=O)(=O)C(F)(F)C(F)(F)C(F)(F)C(F)(F)F` (centres undefined), the GHS category stood at 5.
In turn, `C[C@@H]1CN2CC(=O)Nc3ccc(Cl)cc3[C@]2(c2ccccc2)O1` came in with a GHS category of 5.
As to `C=C(OCC)C1C(C)(C)CC(=O)CC1(C)C`, the GHS category is given as 5.
Next, `Clc1ccccc1-c1nnc(-c2ccccc2Cl)nn1`: 5; `O=C1CCCCCN1C(=O)c1cccc(C(=O)N2CCCCCC2=O)c1`: 5; `CC1CCCCC1`: 5.
`CC(C)COP(=O)(OCC(C)C)OCC(C)C` showed a GHS category of 5.
`CCCCCCCCCCCOC(=O)c1ccccc1C(=O)OCCCCCCCCCCC` yielded a GHS category of 5.
`O=C(O)CCn1nc2ccccn2c1=O`: the GHS category turned out to be 5.
Molecule `Nc1nc(C2CC2)nc(C(=O)O)c1Cl` yielded a GHS category of 5.
The result for `NCCCC[C@H](OP(=O)(O)CCCCc1ccccc1)C(=O)N1CCC[C@H]1C(=O)O` reads 5.
Next, `CCS(=O)(=O)c1cccnc1S(=O)(=O)NC(=O)Nc1nc(OC)cc(OC)n1`: 5; `CCN(C(=O)Cl)C1CCCCC1`: 4.
Next, `CCCCCCCCCC(=O)OCC(CC)(COC(=O)CCCCCCC)COC(=O)CCCCCCC`: 5; `O=C(OCCOCCO)c1cc(O)ccc1Nc1ccc(O)c(C(F)(F)F)c1`: 4; `CCC(C)C(=O)OCCc1ccccc1` (centres undefined): 5.
`CC1N=C(c2ccccc2F)c2c(ccc(NC(=O)NCCO)c2Br)N(C)C1=O` (centres undefined): the GHS category is 5.
Next, `CC(=O)C(=O)CC(C)C`: 5.
The result for `CCCCCC(=O)OC` reads 5; that for `CC(C)CCCC(C)CCCC(C)CCCCC(C)CCCC(C)CCCC(C)C` (centres undefined), 4; that for `CCCCCCCC(=O)OCCCCCC`, 5.
The result for `CNCc1ccc(CSCCN/C(=N/S(C)(=O)=O)NCC(O)c2ccc(O)cc2)o1` (centres undefined) reads 5; that for `CC(=O)N(C)C(=O)Oc1cccc2c1OC1(CCCCC1)O2`, 4; that for `CCCCCCCCCCCCCCCCCC(=O)OC(CO)COC(=O)CCCCCCCCCCCCCCC` (centres undefined), 5.
Take `CC(C)OC(=O)c1ccccc1OC(N)=O`: the GHS category amounted to 5.
The molecule `O=C(O)c1cc2ccccc2c(N=Nc2cc(Cl)ccc2Cl)c1O` had a GHS category of 5.
The result for `CCCCCCC(O)CCCCCCCCCCC(=O)OCC(COC(=O)CCCCCCCCCCC(O)CCCCCC)OC(=O)CCCCCCCCCCC(O)CCCCCC` (centres undefined) reads 5; that for `COC(=O)CCCCCCCCCC[Si](C)(C)Cl`, 5; that for `COC(=O)c1ccc(C(F)(F)F)nc1S(=O)(=O)NC(=O)Nc1nc(OC)cc(OC)n1`, 5.
As for `CCOc1nc2cccc(C(=O)OC(C)OC(=O)OC3CCCCC3)c2n1Cc1ccc(-c2ccccc2-c2nnn[nH]2)cc1` (centres undefined), the GHS category was found to be 5.
`O=C1OCCN1N=Cc1c(N2CCCCCC2)nc2ccccn2c1=O` gave a GHS category of 4.
The molecule `CC(C)c1cc2c(cc1S(=O)(=O)O)[C@@]1(C)CCC[C@@](C)(C(=O)O)[C@@H]1CC2` gave a GHS category of 5.
Next, `CC(=O)NC(C(=O)O)C(C)(C)S` (centres undefined): 4.
Next, `CCCCCCC1(C)CCC(=O)O1` (centres undefined): 5; `Nc1nc(=O)c2c(CCc3ccc(C(=O)O)cc3)c[nH]c2[nH]1`: 5.
The result for `CC(=O)N1CCSC1C(=O)Oc1c(C)ncc(CO)c1CO` (centres undefined) reads 5.
With `O=c1c2ccccc2[nH]c2cc3c(=O)c4ccccc4[nH]c3cc12`, the GHS category amounted to 5.
With `CCCCCCOC(=O)C(C)(C)C`, the GHS category is on record as 5.
Next, `CCC(C)c1cc(S(=O)(=O)O)cc(-n2nc3ccccc3n2)c1O` (centres undefined): 5; `CCCCC(O)CCO` (centres undefined): 5; `O=C(Cc1ccccc1)C1C(=O)CC(c2ccccc2)CC1=O` (centres undefined): 5.
For `Cc1cccc(C)c1NC(=O)CN1CCN(CCCC(c2ccc(F)cc2)c2ccc(F)cc2)CC1`, the GHS category is 5.
For `CNC(=O)c1sc(-c2ccc(OC)cc2)nc1C`, the GHS category was determined as 5.
For the molecule `Cc1cc(C(=O)Nc2cccc(C)c2C)n[nH]1`, the GHS category was 5.
The result for `COC(F)(F)C(C(F)(F)F)C(F)(F)F` reads 3; that for `CC[C@H]1OC(=O)C[C@@H](O)[C@H](C)[C@@H](O[C@@H]2O[C@H](C)[C@@H](O[C@H]3C[C@@](C)(O)[C@@H](O)[C@H](C)O3)[C@H](N(C)C)[C@H]2O)[C@@H](CC=O)C[C@@H](C)C(=O)C=CC(C)=C[C@@H]1CO[C@@H]1O[C@H](C)[C@@H](O)[C@@H](OC)[C@H]1OC`, 5; that for `CSC(=O)c1c(C(F)F)nc(C(F)(F)F)c(C(=O)SC)c1CC(C)C`, 5.
The result for `CC1=C(C(=O)O)N2C(=O)[C@@H](NC(=O)[C@H](N)C3=CCC=CC3)[C@H]2SC1` reads 5; that for `CCCCOC(=O)Nc1nc(N2CC=CCC2)cc2nc(=O)on12`, 5; that for `CCCCCCCCCCCCCCOC(=O)Cl`, 5.
Take `Cc1ccc(SCOC(Cn2ccnc2)c2ccc(Cl)cc2Cl)cc1` (centres undefined): the GHS category amounted to 5.
The molecule `Cc1cccc(NC(=O)c2cc(C)[nH]n2)c1` returned a GHS category of 5.
`O=[N+]([O-])c1ccc(C=NOCc2cccc([N+](=O)[O-])c2)cc1` showed a GHS category of 4.
In the case of `CC1(C(=O)Nc2ccc(O)c(Cl)c2Cl)CCCCC1`, the GHS category was 5.
Next, `Cn1cc(-c2ccccc2)c(=O)c(-c2cccc(C(F)(F)F)c2)c1`: 5.
Next, `CCCCC(=O)N(Cc1ccc(-c2ccccc2-c2nnn[nH]2)cc1)[C@@H](C(=O)O)C(C)C`: 5; `CCCCCCCCCCCCOC(=O)CCSCCC(=O)OCCCCCCCCCCCC`: 5; `NC[C@H]1O[C@H](O[C@H]2[C@H](O)[C@@H](O[C@H]3O[C@H](CO)[C@@H](O)[C@H](N)[C@H]3O)[C@H](N)C[C@@H]2N)[C@H](N)[C@@H](O)[C@@H]1O`: 5.
For `COc1ccc(C2(O)c3ccccc3C3=NCCN32)cc1` (centres undefined), the GHS category was 4.
The result for `FC(F)(F)C(F)(F)C(Cl)Cl` reads 5; that for `O=C(O)c1ccc(NC(=O)[C@H](Cc2ccc(O)cc2)NC(=O)c2ccccc2)cc1`, 5; that for `CC(C)(C)C1CCC(C2=C(O)c3ccccc3C(=O)C2=O)CC1` (centres undefined), 5.
The result for `O=C(O)[C@@H]1C[C@@H](C2CCCCC2)CN1` reads 5; that for `O=Cc1cc([N+](=O)[O-])ccc1Cl`, 5; that for `CCCC(=O)NC(C)C(=O)O` (centres undefined), 5.
Next, `CN1CC(O)C2=C/C(=N/NC(N)=O)C(=O)C=C21` (centres undefined): 5.
Regarding `CCCCCCCCCCCCCC(=O)OC(C)C`, the GHS category worked out at 5.
In turn, `CC(C)(C)N(Sc1nc2ccccc2s1)Sc1nc2ccccc2s1` yielded a GHS category of 5.
As for `CCC=CCCCCCCCC(=O)OC`, the GHS category was determined as 5.
Molecule `CC(C)=CCOc1ccc(/C=C/C(=O)c2ccc(OCC=C(C)C)cc2OCC(=O)O)cc1` came in with a GHS category of 5.
Next, `CCOC(=O)CC(=O)N1CCSC1COc1ccccc1OC` (centres undefined): 5; `CCC(=O)OCC(=O)[C@@]1(OC(=O)CC)[C@@H](C)C[C@H]2[C@@H]3CCC4=CC(=O)C=C[C@]4(C)[C@@]3(F)[C@@H](O)C[C@@]21C`: 5.
The result for `C#CCN(C(C)=O)C(=O)Oc1cccc2c1OC(C)(C)O2` reads 4.
The result for `C[C@@H](Oc1cc(Br)cnc1N)c1c(Cl)ccc(F)c1Cl` reads 5.
Take `O=S(=O)(O)c1ccc(N2N=C(c3ccc(Cl)cc3)CC2c2ccccc2)cc1` (centres undefined): the GHS category was found to be 5.
The result for `Oc1ccc(-c2ccccc2)cc1` reads 5; that for `O=C(Nc1ccc(Cl)c(Cl)c1)c1cc(Cl)cc(-c2ccccc2)c1O`, 4; that for `O=S1OCC(CCl)O1` (centres undefined), 2.
Next, `CC[n+]1c(-c2ccccc2)c2cc(N)ccc2c2ccc(N)cc21`: 5; `CC(=O)C(O)O`: 5.
Molecule `CC(=O)CC(=O)Nc1ccc(S(=O)(=O)O)cc1` displayed a GHS category of 5.
`COC(=O)c1cc(Cl)ccc1OC(N)=O` returned a GHS category of 5.
The result for `CCC(=O)OCC(C)(C)OC(C)C1CCCC(C)(C)C1` (centres undefined) reads 5.
In turn, `COc1ccccc1OC(=O)c1ccccc1Nc1cccc(C)c1C` displayed a GHS category of 5.
The result for `O=C=Nc1cccc2c(N=C=O)cccc12` reads 5.

The record behind these values is the CATMoS acute toxicity set (Mansouri et al. 2021).
